Laboratory results from patent US7763612B2, “Therapeutic amine-arylsulfonamide conjugate compounds” (Algebra, Inc., priority 2006, dated 2010).
Like-named read-outs stand apart in the source and are kept apart here.

Experiments:
[1] = test system: Mice, CD1 males; assay: Safety and toxicity dose-ranging study, observation for seizures and deaths after oral administration; assay type: in vivo, mouse; details: CD1 male mice, p.o., doses up to 300 mg/kg, observed for one hour
Procedure: Safety and Toxicity: Dose-ranging studies were performed to determine the range of safe doses for compound (1420). […] Mice, groups of 6 CD1 males each, were administered compound suspended in a 0.5% 4000-centipoise methyl cellulose vehicle at a volume of 10 mL/kg p.o. using a 22-gauge stainless steel mouse feeding tube and 1-mL syringe at doses up to 300 mg/kg.

[2] = test system: tetrabenazine-induced behavioral effects; assay: Antitetrabenazine activity in the mouse (prevention of tetrabenazine-induced behavioral effects); assay type: in vivo; details: for ED50: Mus musculus, ip, read-out: ED50 (mg/kg i.p.), antitetrabenazine activity
Excerpt: Substances having an antidepressant action antagonize a number of the behavioral effects induced by tetrabenazine including locomotor activity, ptosis and hypothermia. Tetrabenazine-induced behavioral effects can be quantified using a composite index, X, where X=(1−ptosis score)/(activity score*[Temp., treated/Temp., control]) as described by Cooper, B. R., J. L. Howard, and F. E. Soroko, Animal models used in prediction of antidepressant effects in man, Journal of Clinical Psychiatry 44:63-6, 1983). 50% effective dose (ED50) values indicate a dose of compound with ‘antitetrabenazine activity’ at which the composite index, X, induced by 20 mg/kg of tetrabenazine intraperitoneally is reduced 50%.
Prevention of tetrabenazine-induced behavioral effects were measured using a modification of the method of Vernier et al., First Hahnemann Symposium on Psychosomatic Medicine, ed. Nodim and Moyer, pub Lea and Febiger, Philadelphia 1962 as described previously (Cooper, B. R., J. L. Howard, and F. E. Soroko, Animal models used in prediction of antidepressant effects in man, Journal of Clinical Psychiatry 44:63-6, 1983). Mice, groups of 12 CD1 males each, were injected intraperitoneally (i.p.) with the compounds (1420), (20a) and furosemide (10) suspended in a 0.5% 4000-centipoise methyl cellulose solution at 3 mg/mL or vehicle. All injections were administered at a vehicle volume of 10 ml/kg. The 50% effective dose (ED50) of each compound was determined by linear regression analysis of log probit plots of dose effect curves and is reported in Table 3: […]

[3] = CD1 male mice, i.p., dose at which composite index X induced by 20 mg/kg tetrabenazine i.p. is reduced 50%

SMILES | serious adverse events (seizures and deaths) [1] | inhibition of tetrabenazine-induced behavioral effects ([2]; CD1 male mice, i.p.) | ED50 [2, 3] [mg/kg] | ED50 [2] [mg/kg]
C[C@@H]1CO[C@@](O)(c2cc(F)cc(F)c2)[C@H](C)N1C(=O)OCOC(=O)c1cc(S(N)(=O)=O)c(Cl)cc1NCc1ccco1 [compound 1420, (2S,3S,5R)-4-[5-(aminosulfonyl)-4-chloro-2-[(2-furanylmethyl)amino]benzoyloxymethoxycarbonyl]-2-(3,5-difluorophenyl)-3,5-dimethyl-2-morpholinol] | No seizures or deaths were observed in any animals at any dose | inhibited tetrabenazine-induced behavioral effects | 3.6 | –
C[C@@H]1CO[C@@](O)(c2cc(F)cc(F)c2)[C@H](C)N1 [20a, (2S,3S,5R)-2-(3,5-difluorophenyl)-2-hydroxy-3,5-dimethylmorpholine] | – | inhibited tetrabenazine-induced behavioral effects | – | 0.2
NS(=O)(=O)c1cc(C(=O)O)c(NCc2ccco2)cc1Cl [furosemide, 5-(aminosulfonyl)-4-chloro-2-[(2-furanylmethyl)amino]benzoic acid] | – | – | > 30 | –
